From PubChem BioAssay AID493112 (Sanford-Burnham Center for Chemical Genomics, 2011)
The source made the active and inactive calls.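 Rule for the calls: active = mean half-maximal activation concentration below 100 µM; inactive = the rest.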

Each compound was assayed against Alkaline phosphatase, tissue-nonspecific isozyme (Homo sapiens) (UniProt P05186) (assay: effect of analogs on TNAP activity, SAR follow-up, selectivity assay for human IAP activator project, biochemical, human TNAP (AID 493112)). Details: purified TNAP, CDP-Star luminescence, 30 min.
Chain of Alkaline phosphatase, tissue-nonspecific isozyme (Homo sapiens) (P05186 whole entry, looked up): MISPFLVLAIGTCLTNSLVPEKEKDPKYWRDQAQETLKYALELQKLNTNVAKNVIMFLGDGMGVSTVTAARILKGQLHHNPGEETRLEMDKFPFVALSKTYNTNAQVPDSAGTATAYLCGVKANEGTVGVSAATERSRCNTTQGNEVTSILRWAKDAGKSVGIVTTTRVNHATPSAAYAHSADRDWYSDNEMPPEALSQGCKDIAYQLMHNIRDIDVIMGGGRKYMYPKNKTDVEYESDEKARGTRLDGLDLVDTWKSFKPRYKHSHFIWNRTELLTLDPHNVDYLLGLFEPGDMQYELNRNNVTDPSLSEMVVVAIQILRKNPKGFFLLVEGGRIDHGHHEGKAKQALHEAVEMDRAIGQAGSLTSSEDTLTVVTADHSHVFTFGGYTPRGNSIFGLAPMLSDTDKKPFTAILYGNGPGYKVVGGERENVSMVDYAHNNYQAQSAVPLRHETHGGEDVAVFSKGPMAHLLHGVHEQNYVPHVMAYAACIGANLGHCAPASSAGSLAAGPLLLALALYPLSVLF

Q: With O=C(N/N=C/c1c(O)ccc2ccccc12)c1cc(-c2cccs2)[nH]n1 as the compound, how does the IC50 (inhibition of TNAP activity) read?
A: > 100 µM (inactive)

Q: Which IC50 (inhibition of TNAP activity) does the source give for O=C(NN=Cc1ccc(O)cc1O)C(=O)NN=Cc1ccc(O)cc1O here?
A: > 100 µM (inactive)

Q: For CC(=O)Nc1cccc(C(=O)NNC(=O)c2n[nH]c(=O)c3ccccc23)c1, which IC50 (inhibition of TNAP activity) is on record?
A: 10.3 µM

Q: Which IC50 (inhibition of TNAP activity) does the source give for COc1cc(/C=N\NC(=O)C(=O)N/N=C/c2cc(OC)c(O)c(OC)c2)cc(OC)c1O here?
A: > 100 µM (inactive)

Q: With Cn1cccc1-c1cc(C(=O)NN=Cc2cc(Br)ccc2O)[nH]n1 as the compound, how does the IC50 (inhibition of TNAP activity) read?
A: 9.38 µM

Q: For COc1ccc(/C=N/NC(=O)C(=O)N/N=C/c2ccc(OC)c(OC)c2)cc1OC, which IC50 (inhibition of TNAP activity) is on record?
A: > 100 µM (inactive)

Q: With O=C(NN=Cc1c(O)ccc2ccccc12)c1[nH]ncc1Br as the compound, how does the IC50 (inhibition of TNAP activity) read?
A: > 100 µM (inactive)

Q: Cc1ccc(O)c(C=NNC(=O)c2[nH]ncc2Br)c1 was tested. Which IC50 (inhibition of TNAP activity) did it give?
A: 15.6 µM

Q: For O=C(N/N=C/c1cc(Br)ccc1O)C(=O)N/N=C/c1cc(Br)ccc1O, which IC50 (inhibition of TNAP activity) is on record?
A: > 100 µM (inactive)

Q: For CCOc1cc(/C=N/NC(=O)C(=O)N/N=C/c2ccc(O)c(OCC)c2)ccc1O, which IC50 (inhibition of TNAP activity) is on record?
A: > 100 µM (inactive)

Q: How did the IC50 (inhibition of TNAP activity) turn out when O=C(N/N=C/c1ccccc1C(=O)O)C(=O)N/N=C/c1ccccc1C(=O)O was run?
A: 36.2 µM

Q: With Cc1cc(C(=O)N/N=C/c2cc(Br)ccc2O)n[nH]1 as the compound, how does the IC50 (inhibition of TNAP activity) read?
A: 8.35 µM

Q: How did the IC50 (inhibition of TNAP activity) turn out when Cc1ccc(-c2cc(C(=O)NN=Cc3ccccc3O)n[nH]2)o1 was run?
A: 6.16 µM

Q: Which IC50 (inhibition of TNAP activity) does the source give for COc1cccc(C=NNC(=O)C(=O)NN=Cc2cccc(OC)c2O)c1O here?
A: > 100 µM (inactive)

Q: With CCOc1cccc(C=NNC(=O)c2cc(-c3cccn3C)n[nH]2)c1O as the compound, how does the IC50 (inhibition of TNAP activity) read?
A: 10.2 µM

Q: With COc1cccc(C=NNC(=O)c2[nH]nc3c2CCc2ccccc2-3)c1O as the compound, how does the IC50 (inhibition of TNAP activity) read?
A: 10.9 µM

Q: Which IC50 (inhibition of TNAP activity) does the source give for O=C(N/N=C/c1ccccc1O)c1cc(C2CC2)[nH]n1 here?
A: 7.51 µM

Q: For OC(c1nc2ccc(F)cc2[nH]1)C(O)c1nc2ccc(F)cc2[nH]1 (stereo not given), which IC50 (inhibition of TNAP activity) is on record?
A: 7.21 µM

Q: How did the IC50 (inhibition of TNAP activity) turn out when COc1cccc(C=NNC(=O)C2=NNC(=O)C2C)c1O (stereo not given) was run?
A: 12.1 µM

Q: How did the IC50 (inhibition of TNAP activity) turn out when CC(=O)Nc1ccc(/C=N/NC(=O)C(=O)N/N=C/c2ccc(NC(C)=O)cc2)cc1 was run?
A: > 100 µM (inactive)

Q: COc1ccc(-c2cc(C(=O)NN=Cc3c(O)ccc4ccccc34)[nH]n2)cc1 was tested. Which IC50 (inhibition of TNAP activity) did it give?
A: > 100 µM (inactive)

Q: How did the IC50 (inhibition of TNAP activity) turn out when COC(=O)c1ccc(/C=N/NC(=O)C(=O)N/N=C/c2ccc(C(=O)OC)cc2)cc1 was run?
A: > 100 µM (inactive)

Q: For CN(C)c1ccc(/C=N/NC(=O)C(=O)N/N=C/c2ccc(N(C)C)cc2)cc1, which IC50 (inhibition of TNAP activity) is on record?
A: > 100 µM (inactive)

Q: O=C(N/N=C\c1cccc(O)c1)C(=O)N/N=C/c1cccc(O)c1 was tested. Which IC50 (inhibition of TNAP activity) did it give?
A: > 100 µM (inactive)

Q: CC(=NNC(=O)C(=O)NN=C(C)c1cccc(O)c1)c1cccc(O)c1 was tested. Which IC50 (inhibition of TNAP activity) did it give?
A: > 100 µM (inactive)

Q: Which IC50 (inhibition of TNAP activity) does the source give for CCCCOc1ccc(/C=N/NC(=O)C(=O)N/N=C/c2ccc(OCCCC)cc2)cc1 here?
A: > 100 µM (inactive)

Q: Which IC50 (inhibition of TNAP activity) does the source give for COc1cc(/C=N/NC(=O)C(=O)N/N=C/c2ccc(O)c(OC)c2)ccc1O here?
A: > 100 µM (inactive)

Q: How did the IC50 (inhibition of TNAP activity) turn out when COc1ccc(-c2csc(Nc3cccc4ccccc34)n2)cc1F was run?
A: > 100 µM (inactive)

Q: With COc1cc(/C=N/NC(=O)C(=O)N/N=C/c2cc(OC)c(OC)c(OC)c2)cc(OC)c1OC as the compound, how does the IC50 (inhibition of TNAP activity) read?
A: > 100 µM (inactive)

Q: O=C(N/N=C/c1cc(Br)ccc1O)c1cc(C2CC2)[nH]n1 was tested. Which IC50 (inhibition of TNAP activity) did it give?
A: 8.03 µM

Q: O=C(NNC(=S)NC(=O)c1ccccc1[N+](=O)[O-])c1ccccc1O was tested. Which IC50 (inhibition of TNAP activity) did it give?
A: 15.3 µM

Q: Which IC50 (inhibition of TNAP activity) does the source give for CC1C(=O)NN=C1C(=O)NN=Cc1ccc(O)cc1O (stereo not given) here?
A: > 100 µM (inactive)

Q: For C/C(=N\NC(=O)c1cc(C)[nH]n1)c1ccc2ccccc2c1O, which IC50 (inhibition of TNAP activity) is on record?
A: > 100 µM (inactive)

Q: Which IC50 (inhibition of TNAP activity) does the source give for CC(C)Oc1ccccc1/C=N/NC(=O)C(=O)N/N=C/c1ccccc1OC(C)C here?
A: 54.3 µM

Q: For O=C(N/N=C/c1ccc2c(c1)OCO2)C(=O)N/N=C/c1ccc2c(c1)OCO2, which IC50 (inhibition of TNAP activity) is on record?
A: > 100 µM (inactive)

Q: For Cc1cc(C(=O)NN=Cc2cc(Cl)cc([N+](=O)[O-])c2O)n[nH]1, which IC50 (inhibition of TNAP activity) is on record?
A: > 100 µM (inactive)

Q: Which IC50 (inhibition of TNAP activity) does the source give for O=C(CCN1C(=O)/C(=C/c2ccccc2Cl)SC1=S)NNC(=O)c1ccccc1O here?
A: > 100 µM (inactive)

Q: Which IC50 (inhibition of TNAP activity) does the source give for COc1cccc(C=NNC(=O)c2cc(-c3cccn3C)n[nH]2)c1O here?
A: 9.52 µM

Q: COc1cc(OC)cc(C(=O)NNC(=O)c2nn(C)c(=O)c3ccccc23)c1 was tested. Which IC50 (inhibition of TNAP activity) did it give?
A: 10.9 µM

Q: How did the IC50 (inhibition of TNAP activity) turn out when Cc1cc(C(=O)N/N=C\c2cc(C(C)(C)C)ccc2O)n[nH]1 was run?
A: 7.22 µM

Q: Which IC50 (inhibition of TNAP activity) does the source give for O=C(NN=Cc1ccccc1)C(=O)NN=Cc1ccccc1 here?
A: 24.5 µM

Q: Which IC50 (inhibition of TNAP activity) does the source give for COc1ccc(OC)c(/C=N/NC(=O)C(=O)N/N=C/c2cc(OC)ccc2OC)c1 here?
A: 69.5 µM

Q: For O=C(NC(=S)NNC(=O)c1ccccc1O)c1ccc(F)cc1, which IC50 (inhibition of TNAP activity) is on record?
A: 11.5 µM

Q: Which IC50 (inhibition of TNAP activity) does the source give for O=C(N/N=C/c1ccc(O)cc1)C(=O)N/N=C/c1ccc(O)cc1 here?
A: > 100 µM (inactive)

Q: How did the IC50 (inhibition of TNAP activity) turn out when O=C(N/N=C/c1c(O)ccc2ccccc12)C(=O)N/N=C/c1c(O)ccc2ccccc12 was run?
A: > 100 µM (inactive)

Q: With Cc1cc(C(=O)NN=Cc2cccc([N+](=O)[O-])c2O)n[nH]1 as the compound, how does the IC50 (inhibition of TNAP activity) read?
A: > 100 µM (inactive)

Q: Which IC50 (inhibition of TNAP activity) does the source give for N#CCOc1ccccc1/C=N/NC(=O)C(=O)N/N=C/c1ccccc1OCC#N here?
A: > 100 µM (inactive)

Q: C/C(=N\NC(=O)c1[nH]nc2c1CCc1ccccc1-2)c1ccccc1O was tested. Which IC50 (inhibition of TNAP activity) did it give?
A: 8.78 µM

Q: CC(C)C(=O)NC(=S)Nc1ccccc1C(=O)Nc1ccccc1 was tested. Which IC50 (inhibition of TNAP activity) did it give?
A: 10.4 µM

Q: How did the IC50 (inhibition of TNAP activity) turn out when COc1cc(OC)c(OC)cc1/C=N/NC(=O)C(=O)N/N=C/c1cc(OC)c(OC)cc1OC was run?
A: > 100 µM (inactive)

Q: O=C(N/N=C\c1ccc2c(c1)OCO2)C(=O)N/N=C/c1ccc2c(c1)OCO2 was tested. Which IC50 (inhibition of TNAP activity) did it give?
A: > 100 µM (inactive)

Q: CCN(CC)c1ccc(/C=N/NC(=O)C(=O)N/N=C/c2ccc(N(CC)CC)cc2O)c(O)c1 was tested. Which IC50 (inhibition of TNAP activity) did it give?
A: > 100 µM (inactive)

Q: For O=C(N/N=C/c1ccccc1O)c1n[nH]c2c1CCC2, which IC50 (inhibition of TNAP activity) is on record?
A: 4.74 µM

Q: How did the IC50 (inhibition of TNAP activity) turn out when COc1cccc(C=NNC(=O)C(=O)NN=Cc2cccc(OC)c2OC)c1OC was run?
A: 36.1 µM

Q: With CCOc1cccc(C=NNC(=O)c2cc(C3CC3)[nH]n2)c1O as the compound, how does the IC50 (inhibition of TNAP activity) read?
A: 12.2 µM
